Results as given in US20060292243A1, “Arsenic compounds for the treatment of the arsenic-sensitive blast-cell related diseases” (priority 2005, published 2006).
Where “and” joins values, the source holds several entries; their conditions need not be identical. Identical values can stand only once. Entries after “also recorded” stand apart in the source; their conditions may differ.

What was measured:
BALB/c mice = test: Airway responsiveness to methacholine (PenH, pulmonary function test), OVA-immunized mice; type: in vivo
Experimental: (§1) BALB/c mice (female, 6-8 weeks) were immunized with ovalbumin (OVA) at day 0, 14, 21 and 28. 38 days later, animals were injected with arsenic trioxide (ATO) i.p. for 7 days and antigen challenges with OVA were performed at day 42, 43, 44. At day 45, the airway enhanced pause (PenH) values were measured. 48 hours after the last antigen challenges, the mice were sacrificed, the trachea cannulated, and bronchoalveolar lavage (BAL) was performed by four repeated lavages with balanced salt solution (HBSS) injected into the lungs via the trachea. Total cell counts were performed with a hemocytometer after staining with trypan blue, and then cytospins were prepared, and a differential count of 300 cells per slide was performed. To obtain the absolute number of each leukocyte subtype in the lavage, the percentage of each cell type was multiplied by the total number of cells that were recovered from the bronchoalveolar lavage fluid (BALF). Eotaxin in the BALF was measured via ELISA. Four groups of mice were treated as Table 3.1.
(§2) Group A mice were challenged by PBS only and then treated by PBS, too. Group B mice were immunized by ovalbumin and then treated by PBS only. Group C mice were immunized by ovalbumin and then treated by arsenic trioxide in a dosage of 2.5 mg per kg for mice. Group D mice were challenged by ovalbumin as group B and C and then treated by arsenic trioxide in a dosage of 5 mg/kg.
The mice were challenged with methacholine (Mch.) in an increasing concentration and the airway constriction of the mice was measured by using pulmonary function test, whereafter the data of Table 3.5 was obtained. […] The result is also consistent with the results of eotaxin and eosinophil in BALF.

NZB/NZW mice [1] = test: Severe glomerulonephritis (proteinuria by urine dipstick) in SLE model mice; type: in vivo; conditions: for Mice with severe glomerulonephritis (%): proteinuria more than 1 g/L (2+)
Experimental: (§3) In vivo studies on the activity of arsenic compound were carried out by using an experimental animal model of human Systemic Lupus Erythematosus. NZB/NZW denotes the mouse strain that spontaneously develops an autoimmune syndrome having notable similarities to human Systemic Lupus Erythematosus. Autoimmune disease in NZB/NZW mice is characterized by antinuclear antibodies (IgG) production about 4 months of age, and glomerulonephritis with proteinuria is developed when at 9 months of age, and that is the major cause of death (uremia).
(§4) At 24 weeks of age, mice (3 groups) were treated 3 times per week with PBS (Group I as positive control), 2.5 mg/kg of As2O3 (Group II), or 5 mg/kg of As2O3 (Group III) administered intraperitoneally. The treatment was stopped at 28 weeks of age. Mice were observed daily for clinical signs of disease and for mortality and were bled every 4 weeks for determination of anti-DNA antibody production.
Urine protein levels were determined by colorimetric analysis using dipsticks (Multistix®, Bayer). Severe glomerulonephritis was defined as proteinuria more than 1 g/L (2+) by urine dipstick.

[2] = tested on: white blood cells in BALF; test: Differential white blood cell count in BALF, OVA-immunized mice; type: in vivo, BALB/c mice; conditions: for Lymphocyte concentration in BALF / Neutrophil concentration in BALF: mean; for Eosinophil concentration in BALF / Macrophage concentration in BALF: mean ± SD
Experimental: as §1, §2
The white blood cells in BALF were counted and differentiated. Every kind of white cell was increased in immunized groups when in comparison with the non-immunized group.

T lymphocytes (CD3+) = test: Caspase-3 (Phiphilux) apoptosis within gated PBMC subsets; type: cell-based
Source text: 3. The detection of apoptosis within different subsets of PBMCs by the combination of mAb-fluorescein tandem staining and the treatment of Phiphilux through flowcytometry. Phiphilux is a substrate of caspase-3, composed of a specific oligo-peptide with its sequence subjected to functional caspase-3 cutting and, at each end of the peptide, is covalently coupled to two identical fluorophores.
Thus, the conclusion is that T lymphocytes are more sensitive to arsenic trioxide according the flow data.

Trypanosoma brucei = test: Anti-Trypanosoma test, viable cell count; type: cell-based
Experimental: Arsenic trioxide (Asadin®, 10 mg/10 ml/vial) was used to check the toxicity on the Trypanosoma brucei. Viable cell count was microscopically monitored. […] This is one third of recommended dosage of Melarsoprol (an Anti-Trypanosoma drug). Moreover, cytology observation noticed specific death morphology on cell toxicity. […] Further cytology examination on the death cells will be examined.

NZB/NZW mice [3] = test: Survival of SLE model mice; type: in vivo
Experimental: as §3, §4
Coincident with ameliorating the clinical signs of severe immune complex nephritis, a dramatic prolongation of survival was observed.

arsenic trioxide
effect on airway hyper-reactivity / responsiveness to methacholine (BALB/c mice; BALB/c mice, especially 2.5 mg/kg): does decrease the airway responsiveness; also recorded: successfully blocked
airway constriction by pulmonary function test (PenH) (BALB/c mice; Group C: ATO 2.5 mg/kg, Mch 6.25 mg/ml, mean ± SD): 3.62 ± 0.47
airway constriction by pulmonary function test (PenH) (BALB/c mice; Group C: ATO 2.5 mg/kg, Mch 12.5 mg/ml, mean ± SD): 7.83 ± 1.13
airway constriction by pulmonary function test (PenH) (BALB/c mice; Group C: ATO 2.5 mg/kg, Mch 25 mg/ml, mean ± SD, p<0.05 vs Group B): 10.15 ± 0.84
airway constriction by pulmonary function test (PenH) (BALB/c mice; Group C: ATO 2.5 mg/kg, Mch 50 mg/ml, mean, p<0.05 vs Group B): 9.83
airway constriction by pulmonary function test (PenH) (BALB/c mice; Group D: ATO 5 mg/kg, Mch 6.25 mg/ml, mean ± SD): 2.55 ± 0.35
airway constriction by pulmonary function test (PenH) (BALB/c mice; Group D: ATO 5 mg/kg, Mch 12.5 mg/ml, mean ± SD): 8.82 ± 0.88
airway constriction by pulmonary function test (PenH) (BALB/c mice; Group D: ATO 5 mg/kg, Mch 25 mg/ml, mean ± SD): 11.57 ± 1.52
airway constriction by pulmonary function test (PenH) (BALB/c mice; Group D: ATO 5 mg/kg, Mch 50 mg/ml, mean): 12.51
onset of severe proteinuria in comparison with untreated animals (NZB/NZW mice [1]; 2.5 mg/kg ATO and 5 mg/kg ATO): marked delay in the onset of severe proteinuria
Mice with severe glomerulonephritis (%) (NZB/NZW mice [1]; 2.5 mg/kg, 37 weeks): 16.67%
Mice with severe glomerulonephritis (%) (NZB/NZW mice [1]; 2.5 mg/kg, 40 weeks): 40%
Mice with severe glomerulonephritis (%) (NZB/NZW mice [1]; 5 mg/kg, 37 weeks): 25%
Mice with severe glomerulonephritis (%) (NZB/NZW mice [1]; 5 mg/kg, 40 weeks): 25%
Lymphocyte concentration in BALF ([2]; Group C: OVA, ATO 2.5 mg/kg): 37.0 ×1000 cells/ml
Neutrophil concentration in BALF ([2]; Group C: OVA, ATO 2.5 mg/kg): 200.7 ×1000 cells/ml
Eosinophil concentration in BALF ([2]; Group C: OVA, ATO 2.5 mg/kg): 28.6 ± 13.0 ×1000 cells/ml
Macrophage concentration in BALF ([2]; Group C: OVA, ATO 2.5 mg/kg): 621.0 ± 199.6 ×1000 cells/ml
Lymphocyte concentration in BALF ([2]; Group D: OVA, ATO 5 mg/kg): 28.7 ×1000 cells/ml
Neutrophil concentration in BALF ([2]; Group D: OVA, ATO 5 mg/kg): 244.0 ×1000 cells/ml
Eosinophil concentration in BALF ([2]; Group D: OVA, ATO 5 mg/kg): 33.2 ± 12.5 ×1000 cells/ml
Macrophage concentration in BALF ([2]; Group D: OVA, ATO 5 mg/kg): 499.1 ± 131.6 ×1000 cells/ml
effect on eosinophil number in BALF ([2]; group C and D vs group B): diminish significantly the eosinophil number
Levels of T cell apoptosis (%) after 48 hr treatment (T lymphocytes (CD3+); 1 μM): 36.1%
Levels of T cell apoptosis (%) after 48 hr treatment (T lymphocytes (CD3+); 5 μM): 96% and 96.2%
killing effect on Trypanosoma brucei (viable cell count) (Trypanosoma brucei; 0.1 mg/ml/day for 3 days, over 7 days): complete killing effect
death morphology on cytology observation (Trypanosoma brucei; cultured Trypanosoma brucei): Cells became thread-like
killing dosage compared with Melarsoprol (Trypanosoma brucei; cultured Trypanosoma brucei): comparable, if not better
killing potency versus 3 doses regimen (Trypanosoma brucei; one dose regimen of 0.3 mg/ml): less killing potency at least one log difference
survival rate (%) (NZB/NZW mice [3]; 2.5 mg/kg, 0 weeks): 100%
survival rate (%) (NZB/NZW mice [3]; 2.5 mg/kg, 22 weeks): 100%
survival rate (%) (NZB/NZW mice [3]; 2.5 mg/kg, 31 weeks): 100%
survival rate (%) (NZB/NZW mice [3]; 2.5 mg/kg, 38 weeks): 83.3%
survival rate (%) (NZB/NZW mice [3]; 2.5 mg/kg, 39 weeks): 66.7%
survival rate (%) (NZB/NZW mice [3]; 2.5 mg/kg, 40 weeks): 66.7%
survival rate (%) (NZB/NZW mice [3]; 2.5 mg/kg, 41 weeks): 66.7%
survival rate (%) (NZB/NZW mice [3]; 2.5 mg/kg, 42 weeks): 50%
survival rate (%) (NZB/NZW mice [3]; 5 mg/kg, 0 weeks): 100%
survival rate (%) (NZB/NZW mice [3]; 5 mg/kg, 22 weeks): 100%
survival rate (%) (NZB/NZW mice [3]; 5 mg/kg, 31 weeks): 66.7%
survival rate (%) (NZB/NZW mice [3]; 5 mg/kg, 38 weeks): 66.7%
survival rate (%) (NZB/NZW mice [3]; 5 mg/kg, 39 weeks): 66.7%
survival rate (%) (NZB/NZW mice [3]; 5 mg/kg, 40 weeks): 66.7%
survival rate (%) (NZB/NZW mice [3]; 5 mg/kg, 41 weeks): 66.7%
survival rate (%) (NZB/NZW mice [3]; 5 mg/kg, 42 weeks): 66.7%
treated mice still alive (NZB/NZW mice [3]; after 43 weeks): 50%
